US20130273519A1, “COMPOSITION FOR TREATING BLOOD AND SET OF DIAGNOSTIC KIT COMPRISING THE SAME TO DETECT AUTOIMMUNE DISEASE” (priority 2012, published 2013)

Test system: level of expression of MMP-3 in blood
Assay: Level of expression of MMP-3 in blood stimulated with PMA, measured using flow cytometer (FACS)
Type: cell-based, human
Parameters: unit not given here
Conditions: for level of expression of MMP-3, After: 500 ul whole blood, 90 ng PMA, 3 h + 6 h Brefeldin A; for level of expression of MMP-3, Total (After minus Before): PMA stimulation
Description: In order to implement the method of stimulating blood and to check the clinical value of the kit of the present invention, the level of expression of MMP-3 was checked using a flow cytometer. 3 ml of blood was collected to sodium citrate tube (BD vacutainer), and CBC (complete blood count) was measured immediately upon pumping-up the blood. Then, the blood was stimulated with the chemical substance of the present invention. 500 ul of whole blood was put into the 24 wells plate for cell culture, and 90 ng of PMA was added into the plate. Then, the cell culture plate was put into a 5% CO2 incubator, and was kept at 37 for 3 hours. After 3 hours, 200 ug/ml of Brefeldin A(SIGMA) was added into the plate, and placed at 37 for 6 hours.
After lapse of the total 9 hours, 50 ul of blood was extracted, and put into 2 tubes respectively. Then, 10 ul of CD45-PC5 10 and 10 ul of CD14-FITC were respectively added to the 2 tubes, mixed with each other, and placed in a darkroom at room temperature for 15 min. Then, 100 ul of RBC lysis buffer (Bechman coulter) was added to the 2 tubes respectively, and mixed with each other using a vortex. The mixtures were placed in a darkroom at room temperature for 15 min. Then, 4 ml of PBS was added to the 2 tubes respectively, and centrifuged to remove the supernatant. Here, the supernatant was not removed using pipette, but poured out to minimize the loss of cells. 100 ul of 0.1% saponin was added to the remaining cells, and stirred smoothly using pipette. Then, the mixture was placed in a darkroom at room temperature for 5min. Then, 10 ul of IgG1-PE was added to the control group and 10 ul of MMP-3-PE was added to the comparative group, and then the both groups were placed in a darkroom for 15 min. After 15 min, 4 ml of PBS was added to the each group, and centrifuged under the condition of 2000 g, 5 min and 4 to remove the supernatant. Then, 500 ul of fresh PBS was added to the each group, and fluorescence-activated cell sorting (FACS) was performed.

[1] = RA (R), patient with reduced activity after being treated with drugs
[2] = RA (S), patient with severe rheumatoid arthritis
[3] = RA (mi), patient with mild rheumatoid arthritis

CCCCCCCCCCCCCC(=O)O[C@@H]1[C@@H](C)[C@@]2(O)[C@@H](C=C(CO)C[C@]3(O)C(=O)C(C)=C[C@@H]23)[C@@H]2C(C)(C)[C@]12OC(C)=O [PMA, Phorbol 12-myristate 13-acetate]
level of expression of MMP-3, After (Normal1 (normal person)): 39.23 | level of expression of MMP-3, Total (After minus Before) (Normal1 (normal person)): 12.56 | level of expression of MMP-3, After (Normal2 (normal person)): 53.05 | level of expression of MMP-3, Total (After minus Before) (Normal2 (normal person)): 11.49 | level of expression of MMP-3, After [1]: 48.35 | level of expression of MMP-3, Total (After minus Before) [1]: 14.86 | level of expression of MMP-3, After [2]: 68.97 | level of expression of MMP-3, Total (After minus Before) [2]: 43.64 | level of expression of MMP-3, After [3]: 63.65 | level of expression of MMP-3, Total (After minus Before) [3]: 27.52 | level of expression of MMP-3, After (RA (s)): 64.53 | level of expression of MMP-3, Total (After minus Before) (RA (s)): 26.12
